Measurements: patent US20100292214A1, “Compounds with Antiparasitic Activity, Applications thereof to the Treatment of Infectious Diseases Caused by Apicomplexans” (commissariat a l'Energie Atomique, priority 2007, published 2010)
Counter-ions that a name gives are not always drawn.

tested on: asynchronous 3D7 chloroquine-sensitive P. falciparum infected red blood cells; assay: Labeled hypoxanthine incorporation assay (in vitro anti-malarial activity); assay type: cell-based; conditions: 3D7 chloroquine-sensitive strain, infected RBC, 48 h contact, [3H]-hypoxanthine incorporation; two independent experiments in duplicates; hydrochloride salt; read-out: IC50 assessed on Plasmodium Falciparum

Structure (SMILES)	IC50
O=C(OC[C@H](Cc1ccccc1)N(Cc1ccccc1)Cc1ccccc1)N1CCC(n2c(=O)n(Cc3ccccc3)c3ccccc32)CC1 [Compound 37, (S)-2-(dibenzylamino)-3-phenylpropyl 4-(1-benzyl-1,2-dihydro-2-oxobenzo[d]imidazol-3-yl)piperidine-1-carboxylate, hydrochloride salt]	0.873 µM

same assay, conditions: Plasmodium falciparum, 3D7, Erythrocyte, 3D7 chloroquine-sensitive strain, infected RBC, 48 h contact, [3H]-hypoxanthine incorporation; two independent experiments in duplicates; read-out: IC50 assessed on Plasmodium Falciparum

IC50	Structure (SMILES)
2.22 µM	O=C(OCCCN(Cc1ccccc1)Cc1ccc(F)cc1)N1CCC(n2c(=O)[nH]c3ccccc32)CC1 [Compound 147, 3-(benzyl(4-fluorobenzyl)amino)propyl 4-(2-oxo-2,3-dihydro-1H-benzo[d]imidazol-1-yl)piperidine-1-carboxylate hydrochloride]
1.87 µM	COc1ccc(CN(CCCOC(=O)N2CCC(n3c(=O)[nH]c4ccccc43)CC2)Cc2ccccc2)cc1 [Compound 117, 3-(benzyl(4-methoxybenzyl)amino)propyl 4-(2-oxo-2,3-dihydro-1H-benzo[d]imidazol-1-yl)piperidine-1-carboxylate hydrochloride]
2.45 µM	C[C@@H](COC(=O)N1CCC(n2c(=O)[nH]c3ccccc32)CC1)N(Cc1ccccc1)Cc1ccc([N+](=O)[O-])cc1 [Compound 113, (S)-2-(benzyl(4-nitrobenzyl)amino)propyl 4-(2-oxo-2,3-dihydro-1H-benzo[d]imidazol-1-yl)piperidine-1-carboxylate]
3.69 µM	C[C@@H](COC(=O)N1CCC(N(C)c2ccccc2)CC1)N(Cc1ccccc1)Cc1ccccc1 [Compound 166, (S)-2-(dibenzylamino)propyl 4-(N-methyl-N-phenylamino)piperidine-1-carboxylate]
7.47 µM	C[C@@H](COC(=O)N1CCC(n2c(=O)[nH]c3ccccc32)CC1)N(Cc1ccccc1)Cc1ccco1 [Compound 102, (S)-2-(benzyl(furan-2-ylmethyl)amino)propyl 4-(2-oxo-2,3-dihydro-1H-benzo[d]imidazol-1-yl)piperidine-1-carboxylate]
4.43 µM	C[C@@H](COC(=O)N1CCC(N(c2ccccc2)S(=O)(=O)c2ccc3ccccc3c2)CC1)N(Cc1ccccc1)Cc1ccccc1 [Compound 171, (S)-2-(dibenzylamino)propyl 4-(N-phenyl-naphthalen-2-ylsulfonamido)piperidine-1-carboxylate]

Structure (SMILES)	IC50
C[C@@H](COC(=O)N1CCC(Nc2nc3ccccc3[nH]2)CC1)N(Cc1ccccc1)Cc1ccccc1 [Compound 93, (S)-2-(Dibenzylamino)propyl 4-(1H-benzo[d]imidazol-2-ylamino)piperidine-1-carboxylate]	0.18 µM
O=C(OCCN(Cc1ccccc1)Cc1ccc(F)cc1)N1CCC(n2c(=O)[nH]c3ccccc32)CC1 [Compound 119, 2-(benzyl(4-fluorobenzyl)amino)ethyl 4-(2-oxo-2,3-dihydro-1H-benzo[d]imidazol-1-yl)piperidine-1-carboxylate hydrochloride]	3.57 µM
CCN(CCOC(=O)N1CCC(n2c(=O)[nH]c3ccccc32)CC1)c1ccccc1 [Compound 41, 2-(ethyl(phenyl)amino)ethyl 4-(2-oxo-2,3-dihydro-1H-benzo[d]imidazol-1-yl)piperidine-1-carboxylate]	24.4 µM
C[C@@H](COC(=O)N1CCC(Oc2nc3ccccc3n2C)CC1)N(Cc1ccccc1)Cc1ccccc1 [Compound 5, (S)-2-(dibenzylamino)propyl 4-(1-methyl-1H-benzo[d]imidazol-2-yloxy)piperidine-1-carboxylate]	6.16 µM

tested on: Toxoplasma gondii RH-β1 strain; assay: microbe, parasite or virus in culture; assay type: cell-based; conditions: Toxoplasma gondii, read-out: IC50 assessed on Toxoplama Gondii

Structure (SMILES)	IC50
CN(CCOC(=O)N1CCC(n2c(=O)[nH]c3ccccc32)CC1)Cc1ccccc1 [Compound 27, 2-(N-benzyl-N-methylamino)ethyl 4-(1,2-dihydro-2-oxobenzo[d]imidazol-3-yl)piperidine-1-carboxylate]	2 µM
C[C@@H](COC(=O)N1CCC(Nc2nc3ccccc3[nH]2)CC1)N(Cc1ccccc1)Cc1ccccc1 [Compound 93, (S)-2-(Dibenzylamino)propyl 4-(1H-benzo[d]imidazol-2-ylamino)piperidine-1-carboxylate]	0.98 µM
C[C@@H](COC(=O)N1CCC(n2c(N)nc3ccccc32)CC1)N(Cc1ccccc1)Cc1ccccc1 [Compound 177, (S)-2-(dibenzylamino)propyl 4-(2-amino-1H-benzo[d]imidazol-1-yl)piperidine-1-carboxylate]	3.8 µM
O=C(OCCN(Cc1ccccc1)Cc1ccc(F)cc1)N1CCC(n2c(=O)[nH]c3ccccc32)CC1 [Compound 119, 2-(benzyl(4-fluorobenzyl)amino)ethyl 4-(2-oxo-2,3-dihydro-1H-benzo[d]imidazol-1-yl)piperidine-1-carboxylate hydrochloride]	1.4 µM
CCN(CCOC(=O)N1CCC(n2c(=O)[nH]c3ccccc32)CC1)c1ccccc1 [Compound 41, 2-(ethyl(phenyl)amino)ethyl 4-(2-oxo-2,3-dihydro-1H-benzo[d]imidazol-1-yl)piperidine-1-carboxylate]	1.8 µM
C[C@@H](COC(=O)N1CCC(Oc2nc3ccccc3n2C)CC1)N(Cc1ccccc1)Cc1ccccc1 [Compound 5, (S)-2-(dibenzylamino)propyl 4-(1-methyl-1H-benzo[d]imidazol-2-yloxy)piperidine-1-carboxylate]	2.5 µM
O=C(OCCOCc1ccccc1)N1CCC(n2c(=O)[nH]c3ccccc32)CC1 [Compound 31, 2-(benzyloxy)ethyl 4-(1,2-dihydro-2-oxobenzo[d]imidazol-3-yl)piperidine-1-carboxylate]	0.5 µM
CC(C)(C)OC(=O)N(CCOC(=O)N1CCC(n2c(=O)[nH]c3ccccc32)CC1)Cc1ccccc1 [Compound 185, 2-(benzyl(tert-butoxycarbonyl)amino)ethyl 4-(2-oxo-2,3-dihydro-1H-benzo[d]imidazol-1-yl)piperidine-1-carboxylate]	2 µM
O=C(OCCCCCCN(Cc1ccccc1)Cc1ccccc1)N1CCC(n2c(=O)[nH]c3ccccc32)CC1 [Compound 180, 6-(dibenzylamino)hexyl 4-(1,2-dihydro-2-oxobenzo[d]imidazol-3-yl)piperidine-1-carboxylate]	2 µM
C[C@@H](COC(=O)N1CCC(c2cccc3[nH]c(=O)[nH]c23)CC1)N(Cc1ccccc1)Cc1ccccc1 [Compound 179, (S)-2-(dibenzylamino)propyl 4-(2-oxo-2,3-dihydro-1H-benzo[d]imidazol-4-yl)piperidine-1-carboxylate]	3.25 µM
C[C@@H](COC(=O)N1CCC(n2c(=O)[nH]c3ccccc32)CC1)N(Cc1ccccc1)Cc1ccc(F)cc1 [Compound 184, (S)-2-(benzyl(4-fluorobenzyl)amino)propyl 4-(2-oxo-2,3-dihydro-1H-benzo[d]imidazol-1-yl)piperidine-1-carboxylate hydrochloride]	3.3 µM
O=C(OC[C@H](Cc1ccccc1)N(Cc1ccccc1)Cc1ccccc1)N1CCC(N(c2ccccc2)S(=O)(=O)c2ccc(C(F)(F)F)cc2)CC1 [Compound 183, (S)-2-(dibenzylamino)-3-phenylpropyl 4-(N-phenyl-4-(trifluoromethyl)phenylsulfonamido)piperidine-1-carboxylate]	3.1 µM
C[C@@H](COC(=O)N1CCC(n2c(=O)n(C(=O)C(C)(C)C)c3ccccc32)CC1)N(Cc1ccccc1)Cc1ccccc1 [Compound 66, (S)-2-(dibenzylamino)propyl 4-(1,2-dihydro-2-oxo-1-(pivaloyl)benzo[d]imidazol-3-yl)piperidine-1-carboxylate]	2.8 µM
O=C(OCc1ccccc1)N1CCC(n2c(=O)[nH]c3ccccc32)CC1 [Compound 181, Benzyl 4-(1,2-dihydro-2-oxobenzo[d]imidazol-3-yl)piperidine-1-carboxylate]	0.3 µM
CCN(CC)CCOC(=O)N1CCC(n2c(=O)[nH]c3ccccc32)CC1 [Compound 39, 2-(diethylamino)ethyl 4-(1,2-dihydro-2-oxobenzo[d]imidazol-3-yl)piperidine-1-carboxylate]	12 µM
O=C(OC1CCCN(Cc2ccccc2)C1)N1CCC(n2c(=O)[nH]c3ccccc32)CC1 (stereo not shown) [Compound 33, 1-benzylpiperidin-3-yl 4-(1,2-dihydro-2-oxobenzo[d]imidazol-3-yl)piperidine-1-carboxylate]	0.45 µM
O=C(OCCCN(Cc1ccccc1)Cc1cccc(OCc2ccccc2)c1)N1CCC(n2c(=O)[nH]c3ccccc32)CC1 [Compound 188, 3-(benzyl(3-(benzyloxy)benzyl)amino)propyl 4-(2-oxo-2,3-dihydro-1H-benzo[d]imidazol-1-yl)piperidine-1-carboxylate]	3 µM
O=C(OCC(Cc1ccccc1)NCc1ccccc1)N1CCC(n2c(=O)[nH]c3ccccc32)CC1 (stereo not shown) [Compound 190, 2-(benzylamino)-3-phenylpropyl 4-(2-oxo-2,3-dihydro-1H-benzo[d]imidazol-1-yl)piperidine-1-carboxylate]	0.8 µM
CN(C)CCOC(=O)N1CCC(n2c(=O)[nH]c3ccccc32)CC1 [Compound 35, 2-(dimethylamino)ethyl 4-(1,2-dihydro-2-oxobenzo[d]imidazol-3-yl)piperidine-1-carboxylate]	4 µM
CC(C)N(CCOC(=O)N1CCC(n2c(=O)[nH]c3ccccc32)CC1)C(C)C [Compound 34, 2-(diisopropylamino)ethyl 4-(1,2-dihydro-2-oxobenzo[d]imidazol-3-yl)piperidine-1-carboxylate]	27 µM
O=C(Oc1ccc(N(Cc2ccccc2)Cc2ccccc2)cc1)N1CCC(n2c(=O)[nH]c3ccccc32)CC1 [Compound 178, 4-(dibenzylamino)phenyl 4-(1,2-dihydro-2-oxobenzo[d]imidazol-3-yl)piperidine-1-carboxylate]	1.3 µM
Cn1c(CN(CCCOC(=O)N2CCC(n3c(=O)[nH]c4ccccc43)CC2)Cc2ccccc2)cc2ccccc21 [Compound 186, 3-(benzyl((1-methyl-1H-indol-2-yl)methyl)amino)propyl 4-(2-oxo-2,3-dihydro-1H-benzo[d]imidazol-1-yl)piperidine-1-carboxylate hydrochloride]	4.8 µM
O=C(OCC1CCCCN1Cc1ccccc1)N1CCC(n2c(=O)[nH]c3ccccc32)CC1 (stereo not shown) [Compound 182, (1-benzylpiperidin-2-yl)methyl 4-(1,2-dihydro-2-oxobenzo[d]imidazol-3-yl)piperidine-1-carboxylate]	5 µM
CC(C)C[C@@H](COC(=O)N1CCC(n2c(=O)[nH]c3ccccc32)CC1)NCc1ccccc1 [Compound 189, (S)-2-(benzylamino)-4-methylpentyl 4-(2-oxo-2,3-dihydro-1H-benzo[d]imidazol-1-yl)piperidine-1-carboxylate]	2.3 µM
COC(=O)c1ccc(CN(CCOC(=O)N2CCC(n3c(=O)[nH]c4ccccc43)CC2)Cc2ccccc2)cc1 [Compound 187, 2-(benzyl(4-(methoxycarbonyl)benzyl)amino)ethyl 4-(2-oxo-2,3-dihydro-1H-benzo[d]imidazol-1-yl)piperidine-1-carboxylate]	2.2 µM

same assay, conditions: read-out: IC50 assessed on Toxoplama Gondii; hydrochloride salt

Structure (SMILES)	IC50
O=C(OC[C@H](Cc1ccccc1)N(Cc1ccccc1)Cc1ccccc1)N1CCC(n2c(=O)n(Cc3ccccc3)c3ccccc32)CC1 [Compound 37, (S)-2-(dibenzylamino)-3-phenylpropyl 4-(1-benzyl-1,2-dihydro-2-oxobenzo[d]imidazol-3-yl)piperidine-1-carboxylate, hydrochloride salt]	1.8 µM
